Measured values taken from ChEMBL document CHEMBL3885881, “DrugMatrix”.

Organism: Rattus norvegicus
Experiment: DrugMatrix - Regimen: Daily Repeat
Type: toxicity, organism-based, Sprague-Dawley
Set-up: regimen Daily Repeat, gender Male, age 6-8 weeks
Conditions: in vivo, po, route oral GAVAGE, vehicle .5 % CMC; for ABSOLUTE BASOPHIL / ABSOLUTE EOSINOPHIL / ABSOLUTE LYMPHOCYTE / ABSOLUTE MONOCYTE / ABSOLUTE SEGMENTED NEUTROPHIL / BASOPHIL / EOSINOPHIL / ERYTHROCYTE COUNT / HEMATOCRIT / HEMOGLOBIN / LEUKOCYTE COUNT / LYMPHOCYTE / MEAN CORPUSCULAR HEMOGLOBIN / MEAN CORPUSCULAR HEMOGLOBIN CONCENTRATION / MEAN CORPUSCULAR VOLUME / MONOCYTE / NEUTROPHIL / NUCLEATED RED BLOOD CELLS / PLATELET COUNT: tissue Blood; for ALANINE AMINOTRANSFERASE / ALBUMIN / ALKALINE PHOSPHATASE / ASPARTATE AMINOTRANSFERASE / BLOOD UREA NITROGEN / CARBON DIOXIDE / CHLORIDE / CHOLESTEROL / CREATINE PHOSPHOKINASE / CREATININE / GLUCOSE / LACTATE DEHYDROGENASE / LIPASE / PHOSPHORUS / POTASSIUM / SODIUM / TOTAL BILIRUBIN / TOTAL PROTEIN / URIC ACID: tissue Plasma
[1] = 200 mg/kg, 120 h, dose level Low, time 5 day
[2] = 2500 mg/kg, 72 h, dose level High, time 3 day
[3] = 2500 mg/kg, 120 h, dose level High, time 5 day

CCC1=C(C)CN(C(=O)NCCc2ccc(S(=O)(=O)NC(=O)N[C@H]3CC[C@H](C)CC3)cc2)C1=O [GLIMEPIRIDE]
ABSOLUTE BASOPHIL [1]: 0 CELLS/uL | ABSOLUTE EOSINOPHIL [1]: 0 CELLS/uL | ABSOLUTE LYMPHOCYTE [1]: 12890.33 CELLS/uL | ABSOLUTE MONOCYTE [1]: 43.33 CELLS/uL | ABSOLUTE SEGMENTED NEUTROPHIL [1]: 866.33 CELLS/uL | BASOPHIL [1]: 0% | EOSINOPHIL [1]: 0% | ERYTHROCYTE COUNT [1]: 5.84 x10E6/uL | HEMATOCRIT [1]: 36.5% | HEMOGLOBIN [1]: 14.63 G/DL | LEUKOCYTE COUNT [1]: 13.8 x10E3/uL | LYMPHOCYTE [1]: 93.33% | MEAN CORPUSCULAR HEMOGLOBIN [1]: 25.03 pg | MEAN CORPUSCULAR HEMOGLOBIN CONCENTRATION [1]: 40.1 G/DL | MEAN CORPUSCULAR VOLUME [1]: 62.43 fL | MONOCYTE [1]: 0.33% | NEUTROPHIL [1]: 6.33% | NUCLEATED RED BLOOD CELLS [1]: 0 /100WBC | PLATELET COUNT [1]: 1124.67 x10E3/uL | ALANINE AMINOTRANSFERASE [1]: 58.33 u/L | ALBUMIN [1]: 4.43 G/DL | ALKALINE PHOSPHATASE [1]: 402 u/L | ASPARTATE AMINOTRANSFERASE [1]: 81.33 u/L | BLOOD UREA NITROGEN [1]: 15.67 mg/dL | CARBON DIOXIDE [1]: 31.67 mmol/L | CHLORIDE [1]: 101.33 MEQ/L | CHOLESTEROL [1]: 75 mg/dL | CREATINE PHOSPHOKINASE [1]: 241.33 u/L | CREATININE [1]: 0.18 mg/dL | GLUCOSE [1]: 154 mg/dL | LACTATE DEHYDROGENASE [1]: 123.67 u/L | LIPASE [1]: 10 u/L | PHOSPHORUS [1]: 10.53 mg/dL | POTASSIUM [1]: 6.31 MEQ/L | SODIUM [1]: 143.8 MEQ/L | TOTAL BILIRUBIN [1]: 0.2 mg/dL | TOTAL PROTEIN [1]: 6.23 G/DL | URIC ACID [1]: 1.13 mg/dL | ABSOLUTE BASOPHIL [2]: 0 CELLS/uL | ABSOLUTE EOSINOPHIL [2]: 0 CELLS/uL | ABSOLUTE LYMPHOCYTE [2]: 11733.33 CELLS/uL | ABSOLUTE MONOCYTE [2]: 88 CELLS/uL | ABSOLUTE SEGMENTED NEUTROPHIL [2]: 778.67 CELLS/uL | BASOPHIL [2]: 0% | EOSINOPHIL [2]: 0% | ERYTHROCYTE COUNT [2]: 5.59 x10E6/uL | HEMATOCRIT [2]: 36.03% | HEMOGLOBIN [2]: 14.23 G/DL | LEUKOCYTE COUNT [2]: 12.6 x10E3/uL | LYMPHOCYTE [2]: 92.67% | MEAN CORPUSCULAR HEMOGLOBIN [2]: 25.47 pg | MEAN CORPUSCULAR HEMOGLOBIN CONCENTRATION [2]: 39.6 G/DL | MEAN CORPUSCULAR VOLUME [2]: 64.33 fL | MONOCYTE [2]: 0.67% | NEUTROPHIL [2]: 6.67% | NUCLEATED RED BLOOD CELLS [2]: 0.33 /100WBC | PLATELET COUNT [2]: 1148 x10E3/uL | ALANINE AMINOTRANSFERASE [2]: 60.33 u/L | ALBUMIN [2]: 4.2 G/DL | ALKALINE PHOSPHATASE [2]: 398.33 u/L | ASPARTATE AMINOTRANSFERASE [2]: 110 u/L | BLOOD UREA NITROGEN [2]: 16.67 mg/dL | CARBON DIOXIDE [2]: 28 mmol/L | CHLORIDE [2]: 102.67 MEQ/L | CHOLESTEROL [2]: 61 mg/dL | CREATINE PHOSPHOKINASE [2]: 802 u/L | CREATININE [2]: 0.14 mg/dL | GLUCOSE [2]: 165.67 mg/dL | LACTATE DEHYDROGENASE [2]: 190 u/L | LIPASE [2]: 10.33 u/L | PHOSPHORUS [2]: 10.87 mg/dL | POTASSIUM [2]: 5.99 MEQ/L | SODIUM [2]: 143.87 MEQ/L | TOTAL BILIRUBIN [2]: 0.1 mg/dL | TOTAL PROTEIN [2]: 5.73 G/DL | URIC ACID [2]: 1.47 mg/dL | ABSOLUTE BASOPHIL [3]: 0 CELLS/uL | ABSOLUTE EOSINOPHIL [3]: 80.67 CELLS/uL | ABSOLUTE LYMPHOCYTE [3]: 11006.67 CELLS/uL | ABSOLUTE MONOCYTE [3]: 128 CELLS/uL | ABSOLUTE SEGMENTED NEUTROPHIL [3]: 1118 CELLS/uL | BASOPHIL [3]: 0% | EOSINOPHIL [3]: 0.67% | ERYTHROCYTE COUNT [3]: 5.89 x10E6/uL | HEMATOCRIT [3]: 36.97% | HEMOGLOBIN [3]: 14.8 G/DL | LEUKOCYTE COUNT [3]: 12.33 x10E3/uL | LYMPHOCYTE [3]: 89.33% | MEAN CORPUSCULAR HEMOGLOBIN [3]: 25.13 pg | MEAN CORPUSCULAR HEMOGLOBIN CONCENTRATION [3]: 40.07 G/DL | MEAN CORPUSCULAR VOLUME [3]: 62.73 fL | MONOCYTE [3]: 1% | NEUTROPHIL [3]: 9% | NUCLEATED RED BLOOD CELLS [3]: 0 /100WBC | PLATELET COUNT [3]: 1082.67 x10E3/uL | ALANINE AMINOTRANSFERASE [3]: 74 u/L | ALBUMIN [3]: 4.47 G/DL | ALKALINE PHOSPHATASE [3]: 390 u/L | ASPARTATE AMINOTRANSFERASE [3]: 96.33 u/L | BLOOD UREA NITROGEN [3]: 19 mg/dL | CARBON DIOXIDE [3]: 28.67 mmol/L | CHLORIDE [3]: 101.33 MEQ/L | CHOLESTEROL [3]: 72 mg/dL | CREATINE PHOSPHOKINASE [3]: 380.67 u/L | CREATININE [3]: 0.18 mg/dL | GLUCOSE [3]: 132.33 mg/dL | LACTATE DEHYDROGENASE [3]: 150.33 u/L | LIPASE [3]: 8 u/L | PHOSPHORUS [3]: 11.9 mg/dL | POTASSIUM [3]: 5.72 MEQ/L | SODIUM [3]: 145.67 MEQ/L | TOTAL BILIRUBIN [3]: 0.23 mg/dL | TOTAL PROTEIN [3]: 6.3 G/DL | URIC ACID [3]: 1.5 mg/dL
